Patent US20230263746A1, “Synergistic Polyamine Combinations And Methods Therefor” (Compound Solutions Inc., priority 2022, published 2023)
“Also recorded” adds a separate entry of the source.

How the values were obtained:
wildtype C. elegans [1] = experiment: Lifespan in a C. elegans model; format: in vivo; settings: for effect on lifespan compared to control: 100 μM resveratrol, 500 μM NMN, 20 μg/mL spermidine, 6 μg/mL spermine, or 20 μg/mL spermidine with 6 μg/mL spermine, scored daily until all animals dead; for fraction of live organisms at the same date compared to control: at and after day 12 (latter third in life), FIG. 4
From the text: One physiological marker found to be beneficially and synergistically modulated by the compositions presented herein is lifespan. […] An additional control group was given no treatment. All groups were loaded into chips at the L4-stage. From the 1st day of adulthood, the animals were switched to heat-killed OP50 plus the appropriate compound. Chips were scored daily until all animals were dead.

wildtype C. elegans [2] = experiment: Locomotor activity (healthspan) scoring in C. elegans with respect to age; format: in vivo
From the text: FIG. 7 depicts a method of scoring locomotor activity in C. elegans wherein the animal's displacement from a fixed boundary determines an activity score. […] Using C. elegans as test subjects, this measurement can be accomplished by assigning each animal a digitally fixed boundary and observing each animal's displacement from that boundary. […] An additional control group was given no treatment. All groups were loaded into chips at the L4-stage. From the 1st day of adulthood, the animals were switched to heat-killed OP50 plus the appropriate compound. The displacement of each animal from its assigned fixed boundary determined an activity score.

[3] = days 10 and 12 of animal life, 100 μM resveratrol, 500 μM NMN

SMILES	effect on lifespan compared to control (wildtype C. elegans [1])	locomotor activity compared to untreated/wildtype (wildtype C. elegans [2]; [3])	fraction of live organisms at the same date compared to control (wildtype C. elegans [1])	locomotor activity compared to untreated/wildtype (wildtype C. elegans [2]; with respect to age (all ages scored), 20 μg/mL spermidine)	locomotor activity compared to untreated/wildtype (wildtype C. elegans [2]; day 8 of animal life, 6 μg/mL spermine)	locomotor activity compared to untreated/wildtype (wildtype C. elegans [2]; later ages (after day 8), 6 μg/mL spermine)
NC(=O)c1ccc[n+]([C@@H]2O[C@H](COP(=O)([O-])O)[C@@H](O)[C@H]2O)c1 [NMN, nicotinamide mononucleotide, reference compound]	strongest increase to lifespan compared to control	significantly higher levels of activity than the wildtype C. elegans; also recorded: significantly higher levels of activity than untreated groups				
Oc1ccc(C=Cc2cc(O)cc(O)c2)cc1 [resveratrol, reference compound]	strongest increase to lifespan compared to control	remain more active than the wildtype C. elegans; also recorded: significantly higher levels of activity than untreated groups				
NCCCCNCCCN [spermidine]	weakest effect on lifespan, yet still significant; also recorded: slight lifespan extension compared to the untreated group		increased over control	do not show statistically significant difference in activity levels compared to wildtype C. elegans; also recorded: did not show any significant difference in activity levels compared to the untreated group		
NCCCNCCCCNCCCN [spermine]	significant effects on lifespan		increased over control		significantly more activity; also recorded: significant differences in activity levels compared to the untreated group	does not seem to persist significantly into later ages; also recorded: did not persist into later ages
